Columns and labels:
[1] = test system: MCF10A (normal breast cell line); test: MTT in vitro growth inhibition assay, MCF10A; type: cell-based; conditions: Homo sapiens, MCF-10A; for inhibition at 25 µM: 25 µM of drug, 72 h, read-out: Percentage of Cell Growth Inhibition MCF10A; for GI50: normal breast cell line, 72 h drug exposure
From the text: (§1) With the desired bolinaquinone analogues 12–43 in hand, we examined their cytotoxicity against a panel of 11 tumour cell lines: HT29 (colon carcinoma), U87 and SJ-G2 (glioblastoma), MCF-7 (breast carcinoma), A2780 (ovarian carcinoma), H460 (lung carcinoma), A431 (skin carcinoma), Du145 (prostate carcinoma), BE2-C (neuroblastoma), MIA (pancreatic carcinoma), SMA (spontaneous murine astrocytoma) and a normal breast cell line (MCF10A). The inclusion of the MCF-10A cell line allowed a determination of a crude measure of relative toxicity while noting that the ultimate arbiter of toxicity requires in vivo evaluation. All analogues were initially screened at a 25 µM drug concentration.
(§2) Stock solutions were prepared as follows and stored at −20°C: drugs were stored as 40 mM solutions in DMSO. All cell lines were cultured in a humidified atmosphere 5% CO2 at 37°C. The cancer cell lines were maintained in Dulbecco's modified Eagle's medium (DMEM) (Trace Biosciences, Australia) supplemented with 10% fetal bovine serum, 10 mM sodium bicarbonate, penicillin (100 IU ml^−1), streptomycin (100 µg ml^−1) and glutamine (4 mM). The non-cancer MCF10A cell line was cultured in DMEM:F12 (1 : 1) cell culture media, 5% heat-inactivated horse serum, supplemented with penicillin (50 IU ml^−1), streptomycin (50 µg ml^−1), 20 mM Hepes, L-glutamine (2 mM), epidermal growth factor (20 ng ml^−1), hydrocortisone (500 ng ml^−1), cholera toxin (100 ng ml^−1) and insulin (10 ug ml^−1).
(§3) Cells in logarithmic growth were transferred to 96-well plates. Cytotoxicity was determined by plating cells in duplicate in 100 µl medium at a density of 2500–4000 cells per well. On day 0 (24 h after plating), when the cells were in logarithmic growth, 100 μl of medium with or without the test agent was added to each well. After 72 h, drug exposure growth inhibitory effects were evaluated using the MTT (3-[4,5-dimethylthiazol-2-yl]-2,5-diphenyl-tetrazolium bromide) assay and the absorbance read at 540 nm. Percentage growth inhibition was determined at a fixed drug concentration of 25 µM. A value of 100% is indicative of complete cell growth inhibition. Those analogues showing appreciable percentage growth inhibition underwent further dose–response analysis allowing for the calculation of a GI50 value. This value is the drug concentration at which cell growth is 50% inhibited based on the difference between the optical density values on day 0 and those at the end of drug exposure.

[2] = test system: A2780 (ovarian carcinoma); test: MTT in vitro growth inhibition assay, A2780; type: cell-based; conditions: Homo sapiens; for inhibition at 25 µM: 25 µM of drug, 72 h, read-out: Percentage of Cell Growth Inhibition A2780; for GI50: 72 h drug exposure
From the text: as §1, §2, §3

[3] = test system: H460 (lung carcinoma); test: MTT in vitro growth inhibition assay, H460; type: cell-based; conditions: Homo sapiens; for inhibition at 25 µM: NCI-H460, 25 µM of drug, 72 h, read-out: Percentage of Cell Growth Inhibition H460
From the text: as §1, §2, §3

[4] = test system: SMA (spontaneous murine astrocytoma); test: MTT in vitro growth inhibition assay, SMA; type: cell-based; conditions: Mus musculus; for inhibition at 25 µM: 25 µM of drug, 72 h, read-out: Percentage of Cell Growth Inhibition SMA; for GI50: 72 h drug exposure
From the text: as §1, §2, §3

[5] = test system: U87 (glioblastoma); test: MTT in vitro growth inhibition assay, U87; type: cell-based; conditions: for inhibition at 25 µM: 25 µM of drug, 72 h, read-out: Percentage of Cell Growth Inhibition U87; for GI50: 72 h drug exposure
From the text: as §1, §2, §3

[6] = test system: SJ-G2 (glioblastoma); test: MTT in vitro growth inhibition assay, SJ-G2; type: cell-based; conditions: for inhibition at 25 µM: 25 µM of drug, 72 h, read-out: Percentage of Cell Growth Inhibition SJ-G2; for GI50: 72 h drug exposure
From the text: as §1, §2, §3

[7] = test system: MCF-7 (breast carcinoma); test: MTT in vitro growth inhibition assay, MCF-7; type: cell-based; conditions: Homo sapiens; for inhibition at 25 µM: MCF7, 25 µM of drug, 72 h, read-out: Percentage of Cell Growth Inhibition MCF-7; for GI50: MCF7, 72 h drug exposure
From the text: as §1, §2, §3

[8] = test system: BE2-C (neuroblastoma); test: MTT in vitro growth inhibition assay, BE2-C; type: cell-based; conditions: Homo sapiens, BE(2)-C, 72 h; for inhibition at 25 µM: 25 µM of drug, read-out: Percentage of Cell Growth Inhibition BE2-C; for GI50: 72 h drug exposure
From the text: as §1, §2, §3

[9] = test system: Du145 (prostate carcinoma); test: MTT in vitro growth inhibition assay, Du145; type: cell-based; conditions: Homo sapiens; for inhibition at 25 µM: DU-145, 25 µM of drug, 72 h, read-out: Percentage of Cell Growth Inhibition Du145
From the text: as §1, §2, §3

[10] = test system: MIA (pancreatic carcinoma); test: MTT in vitro growth inhibition assay, MIA; type: cell-based; conditions: for inhibition at 25 µM: 25 µM of drug, 72 h, read-out: Percentage of Cell Growth Inhibition MIA; for GI50: 72 h drug exposure
From the text: as §1, §2, §3

[11] = test system: A431 (skin carcinoma); test: MTT in vitro growth inhibition assay, A431; type: cell-based; conditions: Homo sapiens; for inhibition at 25 µM: A-431, 25 µM of drug, 72 h, read-out: Percentage of Cell Growth Inhibition A431
From the text: as §1, §2, §3

[12] = test system: HT29 (colon carcinoma); test: MTT in vitro growth inhibition assay, HT29; type: cell-based; conditions: Homo sapiens; for inhibition at 25 µM: HT-29, 25 µM of drug, 72 h, read-out: Percentage of Cell Growth Inhibition HT29
From the text: as §1, §2, §3

[13] = test system: panel of 11 cancer cell lines and one normal cell line; test: Cytotoxicity across the whole cell line panel (MTT); type: cell-based; conditions: 25 µM single dose
From the text: as §1, §2, §3

## COC1=C(c2ccccc2)C(=O)C(OC)=C(c2cccc3ccccc23)C1=O [compound 32, 2,5-Dimethoxy-3-(naphthalen-1-yl)-6-phenylcyclohexa-2,5-diene-1,4-dione]
[1]
  inhibition at 25 µM: 58 ± 15%
[2]
  inhibition at 25 µM: 60 ± 17%
[3]
  inhibition at 25 µM: 20 ± 8%
[4]
  inhibition at 25 µM: 58 ± 13%
[5]
  inhibition at 25 µM: 19 ± 2%
[6]
  inhibition at 25 µM: 19 ± 3%
[7]
  inhibition at 25 µM: 22 ± 2%
[8]
  inhibition at 25 µM: 27 ± 15%
[9]
  inhibition at 25 µM: 18 ± 4%
[10]
  inhibition at 25 µM: 13 ± 1%
other
  melting point: 168 to 170 °C
[11]
  inhibition at 25 µM: 17 ± 2%
[12]
  inhibition at 25 µM: 15 ± 4%

## COC1=C(c2cccc(-c3ccccc3)c2)C(=O)C(OC)=C(c2ccc3ccccc3c2)C1=O [compound 37, 2,5-Dimethoxy-3-(biaryl-3-yl)-6-(naphthalene-3-yl)cyclohexa-2,5-diene-1,4-dione]
[1]
  inhibition at 25 µM: > 100%
  GI50: 11 ± 1.3 µM
[2]
  inhibition at 25 µM: 76 ± 3%
  GI50: 11 ± 0.9 µM
[3]
  inhibition at 25 µM: 95 ± 1%
[3]; NCI-H460, 72 h drug exposure
  GI50: 11 ± 0.3 µM
[4]
  inhibition at 25 µM: 85 ± 3%
  GI50: 13 ± 1 µM
[5]
  inhibition at 25 µM: 74 ± 3%
  GI50: 14 ± 1 µM
[6]
  inhibition at 25 µM: > 100%
  GI50: 9.3 ± 1.2 µM
[7]
  inhibition at 25 µM: 88 ± 4%
  GI50: 10 ± 2.6 µM
[8]
  inhibition at 25 µM: > 100%
  GI50: 6.7 ± 0.3 µM
[9]
  inhibition at 25 µM: > 100%
[9]; DU-145, 72 h, 72 h drug exposure
  GI50: 9.8 ± 0.7 µM
[10]
  inhibition at 25 µM: 91 ± 2%
  GI50: 8.3 ± 1 µM
other
  melting point: 119 to 121 °C
[11]
  inhibition at 25 µM: > 100%
[11]; A-431, 72 h, 72 h drug exposure
  GI50: 6 ± 0.9 µM
[12]
  inhibition at 25 µM: > 100%
[12]; HT-29, 72 h drug exposure
  GI50: 5.4 ± 0.4 µM

## COC1=CC(=O)C(OC)=C(c2ccc(CO)cc2)C1=O [compound 17, 3-(4-(Hydroxymethyl)phenyl)-2,5-dimethoxycyclohexa-2,5-diene-1,4-diene]
[1]
  inhibition at 25 µM: < 10%
  GI50: 49 µM
[2]
  inhibition at 25 µM: 53 ± 5%
  GI50: 22 ± 0.9 µM
[3]
  inhibition at 25 µM: < 10%
[4]
  inhibition at 25 µM: 21 ± 10%
  GI50: 37 ± 0.7 µM
[5]
  inhibition at 25 µM: < 10%
  GI50: 45 ± 2.3 µM
[6]
  inhibition at 25 µM: 22 ± 4%
  GI50: 33 ± 1.3 µM
[7]
  inhibition at 25 µM: < 10%
  GI50: 36 ± 2 µM
[8]
  inhibition at 25 µM: > 100%
  GI50: ~11 µM
[9]
  inhibition at 25 µM: < 10%
[10]
  inhibition at 25 µM: < 10%
  GI50: 37 ± 1 µM
other
  melting point: 116 to 118 °C
[11]
  inhibition at 25 µM: < 10%
[12]
  inhibition at 25 µM: < 10%

## COC1=CC(=O)C(OC)=C(c2cc(OC)ccc2OC)C1=O [compound 21, 2,5-Dimethoxy-3-(2,5-dimethoxyphenyl)cyclohexa-2,5-diene-1,4-dione]
[1]
  inhibition at 25 µM: < 10%
[2]
  inhibition at 25 µM: 26 ± 9%
[3]
  inhibition at 25 µM: 17 ± 7%
[4]
  inhibition at 25 µM: 26 ± 4%
[5]
  inhibition at 25 µM: 14 ± 2%
[6]
  inhibition at 25 µM: 16 ± 7%
[7]
  inhibition at 25 µM: 13 ± 6%
[8]
  inhibition at 25 µM: 49 ± 11%
[9]
  inhibition at 25 µM: 17 ± 5%
[10]
  inhibition at 25 µM: 15 ± 2%
[13]
  activity at the initial screening concentration (to proceed to GI50 determination): not sufficiently active
[11]
  inhibition at 25 µM: 12 ± 3%
[12]
  inhibition at 25 µM: 16 ± 4%
